# Tests used:
# Assay type in all cases: biochemical
# [1] = PPi release assay, adenylation activity with L-hydroxyphenylglycine; conditions: for adenylation activity (PPi release assay) / adenylation activity (absorption 360 nm, PPi release assay): substrate L-hydroxyphenylglycine
# Excerpt: (§1) These assays use inorganic pyrophosphatases to convert PPi produced during aminoacyl-AMP formation to orthophosphate (Pi). To measure Pi concentrations some of these assays use molybdate/malachite green reagent for colorimetric detection (McQuade et al. 2008) or, as used in the context of the present invention, a shift in absorbance maximum by conversion of 7-methyl-6-thioguanosine (MESG) by purine nucleoside phosphorylase (Ehmann D. E. et al. (Proc. Natl. Acad. Sci. (2000) 97, 2509-2514) or Daniel & Aldrich (Anal. Biochem. (2010) 404, 56-63)).
# (§2) To determine the adenylation activity of the adenylation domains, the Enzchek® pyrophosphate assay kit (Life Technologies) was used as described by Ehmann D. E. et al. (Proc Nat Acad Science (2000) 97, 2509-2514) with small modifications. The reactions were performed 96 wells UV/Vis transparent plates (BD Falcon). The reaction mixture comprises 50 mM HEPES pH 8.0, 10 mM MgCl2, 5 mM ATP, 75 mM DTT, 0.03 U Inorganic Pyrophosphatase (IP), 1 U Purine Nucleoside Phosphorylase (PNP) and 0.2 mM MESG in a volume of 70 μl. Next 20 μl (around 0.5-2 μM final concentration) of purified A(T) domain, with or without co-purification of the MbtH like helper protein was added and the reaction was pre-incubated for 15 minutes at RT to reduce contaminating Pi. Following the pre-incubation, 10 μl of a 10 mM or 1 mM solution of the appropriate amino acid depending on the performed specificity determination was added to initiate the adenylation reaction and the absorbance at 360 nm was measured using a TECAN I Control spectrophotometer. Absorbance measurements were made every 5 to 10 min over a period of up to 240 min. A reaction with addition of 10 μl MilliQ water instead was used to determine and subtract the background absorbance. As substrates the following amino acids were used: D- or L-phenylalanine, D- or L-hydroxyphenylglycine, D- or L-phenylglycine, L-tryptophan, L-valine, L-cysteine, and L-leucine.
# [2] = PPi release assay, adenylation activity with D-hydroxyphenylglycine; conditions: for adenylation activity (PPi release assay) / adenylation activity (absorption 360 nm, PPi release assay): substrate D-hydroxyphenylglycine
# Excerpt: as §1, §2
# [3] = PPi release assay, adenylation activity with L-phenylglycine; conditions: for adenylation activity (PPi release assay): substrate L-phenylglycine, co-purified with Tcp13, or Tcp17 or VMbtH; for Formed PPi: substrate L-PG 1 mM
# Excerpt: as §1, §2
# [4] = PPi release assay, adenylation activity with D-phenylglycine; conditions: for adenylation activity (PPi release assay): substrate D-phenylglycine, co-purified with Tcp13, or Tcp17 or VMbtH; for Formed PPi: substrate D-PG 1 mM
# Excerpt: as §1, §2
# [5] = PPi release assay, adenylation activity with L-phenylalanine; conditions: substrate L-phenylalanine; for adenylation activity (PPi release assay): co-purified with Tcp13, or Tcp17 or VMbtH
# Excerpt: as §1, §2
# [6] = PPi release assay, adenylation activity with D-phenylalanine; conditions: substrate D-phenylalanine; for adenylation activity (PPi release assay): co-purified with Tcp13, or Tcp17 or VMbtH
# Excerpt: as §1, §2
# [7] = co-purified with Tcp13, or Tcp17 or VMbtH
# [8] = protein alone, without MbtH-like protein
# [9] = co-purified with MbtH-like protein CMbtH
# [10] = co-purified with MbtH-like protein VMbtH
# [11] = substrate L-HPG 0.1 mM, co-purified with MbtH-like protein Tcp 13
# [12] = substrate L-HPG 0.1 mM, co-purified with MbtH-like protein Tcp 17
# [13] = substrate L-HPG 0.1 mM, co-purified with MbtH-like protein VMbtH
# [14] = substrate L-HPG 1 mM, co-purified with MbtH-like protein Tcp 13
# [15] = substrate L-HPG 1 mM, co-purified with MbtH-like protein Tcp 17
# [16] = substrate L-HPG 1 mM, co-purified with MbtH-like protein VMbtH
# [17] = co-purified with MbtH-like protein Tcp13
# [18] = substrate D-HPG 0.1 mM, co-purified with MbtH-like protein Tcp 13
# [19] = substrate D-HPG 0.1 mM, co-purified with MbtH-like protein Tcp 17
# [20] = substrate D-HPG 0.1 mM, co-purified with MbtH-like protein VMbtH
# [21] = substrate D-HPG 1 mM, co-purified with MbtH-like protein Tcp 13
# [22] = substrate D-HPG 1 mM, co-purified with MbtH-like protein Tcp 17
# [23] = substrate D-HPG 1 mM, co-purified with MbtH-like protein VMbtH
# [24] = co-purified with MbtH-like protein Tcp 13
# [25] = co-purified with MbtH-like protein Tcp 17
Substance,"adenylation activity (PPi release assay) [1, 7]","adenylation activity (absorption 360 nm, PPi release assay) [1, 8]","adenylation activity (PPi release assay) [2, 7]","adenylation activity (absorption 360 nm, PPi release assay) [2, 8]",adenylation activity (PPi release assay) [3],adenylation activity (PPi release assay) [4],adenylation activity (PPi release assay) [5],"adenylation activity (absorption 360 nm, PPi release assay) [5, 8]",adenylation activity (PPi release assay) [6],"adenylation activity (absorption 360 nm, PPi release assay) [6, 8]","adenylation activity (absorption 360 nm, PPi release assay) [1, 10]","adenylation activity (absorption 360 nm, PPi release assay) [2, 10]","adenylation activity (absorption 360 nm, PPi release assay) [5, 10]","adenylation activity (absorption 360 nm, PPi release assay) [6, 10]","Formed PPi [1, 11] [mM/min/mM enzyme]","Formed PPi [1, 12] [mM/min/mM enzyme]","Formed PPi [1, 13] [mM/min/mM enzyme]","Formed PPi [1, 14] [mM/min/mM enzyme]","Formed PPi [1, 15] [mM/min/mM enzyme]","Formed PPi [1, 16] [mM/min/mM enzyme]",other results
BpsB_M1_A: purified adenylation domain of BpsB module M1 (SEQ ID NO: 26); Amycolatopsis balhimycina,no adenylation activity,No adenylation activity,no adenylation activity,No adenylation activity,no adenylation activity,no adenylation activity,no adenylation activity,No adenylation activity,no adenylation activity,No adenylation activity,–,–,–,–,–,–,–,–,–,–,adenylation activity (PPi release assay) ([1]; co-purified with MbtH-like protein BMbtH): confirmed its activity
ComB_M1_A: purified adenylation domain of ComB module M1 (SEQ ID NO: 9); Streptomyces lavendulae,no adenylation activity,No adenylation activity,no adenylation activity,No adenylation activity,no adenylation activity,no adenylation activity,no adenylation activity,No adenylation activity,no adenylation activity,No adenylation activity,–,–,–,–,–,–,–,–,–,–,"adenylation activity (PPi release assay) [1, 9]: confirmed its activity; adenylation activity (PPi release assay) [2, 9]: confirmed its activity"
Dbv25_M1_A: purified adenylation domain of Dbv25 module M1 (SEQ ID NO: 2); Nonomuraea sp. ATCC 39727,–,No adenylation activity,–,No adenylation activity,–,–,–,No adenylation activity,–,No adenylation activity,clear adenylation activity,clear adenylation activity,no activity,no activity,–,–,–,–,–,–,–
StaA_M1_A: purified adenylation domain of StaA module M1 (SEQ ID NO: 3); Streptomyces toyocaensis,–,No adenylation activity,–,No adenylation activity,–,–,–,No adenylation activity,–,No adenylation activity,clear adenylation activity,clear adenylation activity,no activity,no activity,–,–,–,–,–,–,–
"Tcp9_M1_AT: purified adenylation thiolation didomain of Tcp9 (SEQ ID NO: 1 plus adjacent thiolation domain), MBP fusion, His-tag",–,No adenylation activity,–,No adenylation activity,–,–,–,No adenylation activity,–,No adenylation activity,–,–,–,–,1.18,1.20,1.23,1.16,1.34,1.40,"adenylation activity (absorption 360 nm, PPi release assay) [1, 17]: clear adenylation activity; Formed PPi [2, 18]: 2.07 mM/min/mM enzyme; Formed PPi [2, 19]: 1.71 mM/min/mM enzyme; Formed PPi [2, 20]: 3.72 mM/min/mM enzyme; Formed PPi [2, 21]: 5.28 mM/min/mM enzyme; Formed PPi [2, 22]: 4.63 mM/min/mM enzyme; Formed PPi [2, 23]: 8.44 mM/min/mM enzyme; adenylation activity (absorption 360 nm, PPi release assay) [2, 17]: clear adenylation activity; Formed PPi [3, 24]: 1.32 mM/min/mM enzyme; Formed PPi [3, 25]: 1.44 mM/min/mM enzyme; Formed PPi [3, 10]: 2.32 mM/min/mM enzyme; Formed PPi [4, 24]: 0.05 mM/min/mM enzyme; Formed PPi [4, 25]: 0.05 mM/min/mM enzyme; Formed PPi [4, 10]: 0.07 mM/min/mM enzyme; adenylation activity (absorption 360 nm, PPi release assay) [5, 17]: no activity; adenylation activity (absorption 360 nm, PPi release assay) [6, 17]: no activity"
"Tcp11_M1_A: purified adenylation domain of Tcp11 module M1 (SEQ ID NO: 7), maltose binding protein fusion, His-tag; Actinoplanes teichomyceticus",–,No adenylation activity,–,No adenylation activity,–,–,–,No adenylation activity,–,No adenylation activity,–,–,–,–,0.80,0.95,1.38,1.03,1.04,1.54,"adenylation activity (absorption 360 nm, PPi release assay) [1, 17]: clear adenylation activity; Formed PPi [2, 18]: 0.08 mM/min/mM enzyme; Formed PPi [2, 19]: 0.11 mM/min/mM enzyme; Formed PPi [2, 20]: 0 mM/min/mM enzyme; Formed PPi [2, 21]: 0.66 mM/min/mM enzyme; Formed PPi [2, 22]: 0.63 mM/min/mM enzyme; Formed PPi [2, 23]: 0.86 mM/min/mM enzyme; adenylation activity (absorption 360 nm, PPi release assay) [2, 17]: clear adenylation activity; Formed PPi [3, 24]: 0.17 mM/min/mM enzyme; Formed PPi [3, 25]: 0.23 mM/min/mM enzyme; Formed PPi [3, 10]: 0.09 mM/min/mM enzyme; Formed PPi [4, 24]: 0 mM/min/mM enzyme; Formed PPi [4, 25]: 0.04 mM/min/mM enzyme; Formed PPi [4, 10]: 0 mM/min/mM enzyme; adenylation activity (absorption 360 nm, PPi release assay) [5, 17]: no activity; adenylation activity (absorption 360 nm, PPi release assay) [6, 17]: no activity"
